Where no end group is shown, it is not given here. [ ]: non-standard residue; d: D form. Dopa = N[C@@H](Cc1ccc(O)c(O)c1)C(=O)O; Hyp = O=C(O)[C@@H]1C[C@@H](O)CN1
Legend:
C57BL/6 mice [1] = assay: Air pouch model (carrageenan): exudate volume, pouch wall weight, exudate cell count; assay type: in vivo; design: Neutrophil (total cell count and classification) / Monocyte (total cell count and classification): unit not given here; details: for Pouch Wall Weight / Exudate volume: mean ± SD, 24 hours after carrageenan; for Exudate volume: injected into air pouch, per mouse: Positive 200 μg, M1-B/M1-A/Test 1.5 mg, M2-B/M2-A 4.5 mg, timing 1 hour (Positive, -B, Test) or 6 hours (-A), Table 1
Experimental: Healthy adult male C57BL/6 mice weighing between 20 and 30 g were supplied by Nanjing Biomedical Research Institute (NBRI) of Nanjing University, China. Prior to any experiments being conducted, mice were housed under standardized conditions (at a constant temperature or 22±2° C., with alternating 12 hour periods of light and darkness), and were fed on a standard mouse diet with water, for about a week.
General anesthesia was induced using intraperitoneal 3% chloral hydrate (Sinopharm Chemical Reagent Co., Ltd., Shanghai, China); 1 mL/10 g of body weight). The hair of the entire dorsum was shaved and depilated 1 day before sterile air injection.
(§1) Air pouches were produced by subcutaneous injection of sterile air (5 mL) into the intrascapular area of the mice. After three days, another injection of air (3 mL) was performed to maintain the pouches. In order to induce acute inflammation, three days after this final injection, animals received an injection of sterile carrageenan solution (CP Kelco, Taixing, Jiangsu Province, China; 1%, 0.5 mL; produced by adding 0.1 g of carrageenan powder into a beaker containing 10 mL of 0.9% saline solution and stirring). Mice were pre-treated with test samples or vehicle 1 hour before and 23 hours after the carrageenan injection into the subcutaneous air pouch. Animals were sacrificed 24 hours after the carrageenan injection.
The cavity was washed with 4 mL of sterile phosphate buffer solution (pH 7.4; prepared by dissolving 4 g of NaCl, 0.1 g of KCl, 1.749 g of Na2HPO4.12H2O and 0.1 g of KH2PO4 in ultrapure water, adjusting the pH to 7.4 with HCl and diluting with water to a total volume of 500 mL).
(§2) Exudates were collected and volumes were quantified. The total number of cells was determined with a haematocytometer (ADVIA 2120 Hematology System, Siemens Healthineers). The exudates were centrifuged at 3000 rpm for 10 minutes at 4° C., and the supernatants were collected and stored at −20° C. for ELISA analysis using standard ELISA test kits (Biolegend™ from Dakewe Biotech Co., Beijing, China or Abcam™, Abcam (Shanghai) Trading Co. Ltd, China) and an ELISA reader (SH-1000 Hitachi, Japan) for tissue necrosis factor alpha (TNF-α), interleukin 1 beta (IL-1β), interleukin 6 (IL-6), interleukin 10 (IL-10), prostaglandin E2 (PGE2), interferon gamma (IFN-γ) and 5-hydroxytryptamine (5-HT; serotonin).
After conducting some preliminary experiments to validate the model, an experiment was conducted in which mice were treated by administering test samples or vehicle in accordance with Table 1 below.
In Table 1, the M1-B, M2-B, M1-A and M2-A samples are MAP (Mefp-1) solutions of specified concentrations administered at different times relative to the carrageenan injection, as specified in the table. The solutions were prepared as follows. Blue mussels were harvested in the coastal area of Shandong Province, China. Mussel feet were collected, cut into small pieces and homogenized in an extraction buffer comprising 5% acetic acid in 4 mol/L of aqueous urea. The crude extracts were collected after centrifuging and then purified by liquid chromatography. The purified protein (semi-finished product; concentration 8 mg/mL; purity as measured by HPLC 91.72%; pH 4.2) was stored at 0° C. The solutions that were employed below were prepared by adding saline solution to this semi-finished product to obtain the concentrations described in Table 1.
Also in Table 1, “Test” is MAP Peptide, which was obtained from Innovagen AB, Sweden. The peptide was synthesized according to the relevant Mefp-1 amino acid sequence. The peptide powder was stored at −20° C. and dissolved in saline water at a concentration of 3.0 mg/mL, pH 5.5.
Dexamethasone (MedChemExpress, Shanghai, China) was obtained in powder form and dissolved in ultrapure water to obtain a solution with a concentration as described in Table 1.
All the substances listed in Table 1 were administrated topically by directly injecting into the air pouches.

C57BL/6 mice [2] = assay: Air pouch model: histology scoring of pouch wall (HE stained slices); assay type: in vivo; design: key to Inflammation score / Edema Score / Motility score: 1 = mild, 2 = moderate, 3 = severe; details: for Motility score: density of neutrophils, 1 to 3 points; for Motility score / Edema Score / Inflammation score: doses and timing per Table 1; for chronic inflammatory cell infiltration of the pouch wall / edema of the pouch wall / neutrophil infiltration of the pouch wall: histological description in words; for Edema Score / Inflammation score: pouch wall histology; for Edema Score: 1 mild to 3 most severe; for Inflammation score: 1 mild to 3 severe; for Sum: sum of inflammation, edema and motility scores
Experimental: as §1
Skin biopsies were taken from the air pouches. A part of the biopsy was fixed in formalin (produced by adding ultra pure water to 50 mL of a 40% formaldehyde solution (Nanchang Rain Dew Experimental Equipment Co., Ltd., Nanchang, […] Provence, China) up to a total volume of 500 mL) and analyzed by histological embedding in paraffin wax, sectioning and staining.
The histological specimens were analysed and an inflammation score, a motility score, an edema score and […] were estimated as follows.
The HE stained slices were observed under an optical microscope and were scored (1, 2 or 3 points) according to the perceived inflammation level (in cases showing only a small amount of inflammatory cells scattered in the area—1 point (mild); in cases where many inflammatory cells were observed—2 points (moderate); and, in cases with diffuse infiltration—3 points (severe)). A similar scoring system was employed for edema levels (3 points for most severe and 1 point for mild) after overall observation. Motility scores represented the density of neutrophils, which employed the same methodology as that employed for inflammatory cells.

TNF-α = assay: Air pouch model: ELISA of exudate for TNF-α; assay type: in vivo, mice; details: ±SD, doses and timing per Table 1
Experimental: as §1, with “Animals were sacrificed 24 hours after the carrageenan injection.” left out
as §2, with “serotonin). […]” for “serotonin).”

IL-6 = assay: Air pouch model: ELISA of exudate for IL-6; assay type: in vivo, mice; details: ±SD, doses and timing per Table 1
Experimental: as §1
as §2, with “The total number of cells was determined with a haematocytometer (ADVIA 2120 Hematology System, Siemens Healthineers).” left out

IFN-γ = assay: Air pouch model: ELISA of exudate for IFN-γ; assay type: in vivo, mice; details: ±SD, doses and timing per Table 1
Experimental: as §1, with “Animals were sacrificed 24 hours after the carrageenan injection.” left out
as §2, with “serotonin). […]” for “serotonin).”

C57BL/6 mice [3] = assay: Air Pouch Model II: histology scoring; assay type: in vivo
Experimental: (§3) Essentially the same procedure as that described in Example 1 above was followed, to treat mice by administering test samples or vehicle in accordance with Table 6 below.
(§4) In this example, MAP Peptide powder was dissolved in saline water at a concentration of 0.6 mg/mL at pH 5.5. Then 0.5 mL of the solution was injected into each air pouch in the group.

TNF-α, IL-6, and IL-1β = assay: Air Pouch Model II: ELISA of exudate; assay type: in vivo, mice; details: 300 μg/mouse into air pouch; FIGS. 2A-2C
Experimental: as §3, §4
In this example, ELISA analysis was carried out for TNF-α, IL-6, and IL-1β, which are shown graphically in FIGS. 2A-2C, respectively.

C57BL/6 mice [4] = assay: Acute wound model: wound contraction ratio; assay type: in vivo
Experimental: 6-8 weeks old male C57BL/6 mice were supplied by Changzhou Ovens Experimental Animal Co. Ltd (Changzhou, Jiangsu Province, China). Prior to any experiments being conducted, mice were housed under standardized conditions (at a constant temperature of 22±2° C., with alternating 12 hour periods of light and darkness), and were fed on a standard mouse diet with water, for about a week.
General anesthesia was induced using intraperitoneal 3% chloral hydrate (1 mL/10 g of body weight). The hair on the back was shaved by a baby hair shaver and depilated with cream. The skin area was wiped and sterilized with 75% alcohol twice.
An EMS skin biopsy punch (Electron Microscopy Sciences, P.O. Box 550, 1560 Industry Road, Hatfield, PA, USA) with 8 mm diameter was used to make a round wounds on each side of the midline of the back. The full thickness of skin was removed and the depth of the wound reached the fascia. Wounds were left open without a suture.
Different drugs were administrated topically at 50 μL/wound, once daily from Day 0 to Day 12, as show in Table 8 below. […] The model group was given same amount of normal saline. There were 12 mice in each group.
For this experiment, MAP Peptide was obtained from GL Biochem (Shanghai) Ltd. The peptide powder was stored at −20° C. and dissolved in saline at a concentration of 33 μg/m L.
20 μL of respective solutions were applied onto each wound surface in the relevant groups.
Wounds were dressed with gauze and transparent dresser after drug administration. Photographs were taken for each wound every other day from Day 0. Photos were scanned into a computer, and wound areas calculated using ImageJ image analysis software (National Institutes of Health, […]).
Photographs were taken for each wound every other day from Day 0. Wound healing was calculated by the wound contraction ratio (WCR) WCR=(A0−At)/A0×100% where A0 and At refer to the initial area at Day 0 and the wound area at the date of measurement (time t), respectively.

[5] = test system: polymorphous light eruption; assay: MAP Peptide liquid spray in subjects with polymorphous light eruption; assay type: in vivo; details: 1.5 mg/mL spray in WFI
Experimental: MAP Peptide was dissolved in water for injection (WFI; prepared from TC-RO-0.25T/h-2 water treatment system, Yangzhou […] Treatment Devices & Engineering Co., Ltd., Yangzhou, China). The concentration of the solution was 1.5 mg/mL. The solution was loaded into a spray device. Enrolled subjects in the study were diagnosed with polymorphous light eruption (an inflammatory condition characterized by a rash caused by sun exposure in people who have developed sensitivity to sunlight). Prior to treatment, the patients presented symptoms including skin redness, papules, itching and swelling. Subjects were required to use the liquid spray in the morning and the evening after facial cleansing.

[6] = air pouch exudate, doses and timing per Table 1
[7] = 300 μg/mouse into air pouch, 1 hour before carrageenan
[8] = ±SD, topical once daily, MAP 5 μg/wound, MAP Peptide 6.57 μg/wound

Molecule | Leukocyte (total cell count and classification) (C57BL/6 mice [1]; [6]) [mL⁻¹] | Pouch Wall Weight (C57BL/6 mice [1]; doses and timing per Table 1) [g] | Exudate volume (C57BL/6 mice [1]) [mL] | Motility score (C57BL/6 mice [2]) | chronic inflammatory cell infiltration of the pouch wall (C57BL/6 mice [2]) | edema of the pouch wall (C57BL/6 mice [2]) | neutrophil infiltration of the pouch wall (C57BL/6 mice [2]) | Edema Score (C57BL/6 mice [2]) | Inflammation score (C57BL/6 mice [2]) | Sum (C57BL/6 mice [2]) | TNF-α (TNF-α) | IL-6 (IL-6) | IFN-γ (IFN-γ) | also measured
C[C@@H]1C[C@H]2[C@@H]3CCC4=CC(=O)C=C[C@]4(C)[C@@]3(F)[C@@H](O)C[C@]2(C)[C@@]1(O)C(=O)CO [Positive, Dexamethasone, reference compound] | 3.49e+06 | 0.63 ± 0.09 | 3.3 ± 0.15 | 0.67 | moderate chronic inflammatory cell infiltration | moderate interstitial edema | a small amount of neutrophil infiltration | 1.67 | 1.83 | 4.17 | 65.08 ± 7.70 | 428.05 ± 267.27 | 388.83 ± 130.02 | –
AKPSY[Hyp][Hyp]T[Dopa]K [MAP Peptide] | 4.74e+06 | 0.60 ± 0.17 | 3.43 ± 0.06 | 1.00 | mild to moderate chronic inflammatory cell infiltration | interstitial edema | a small amount of neutrophil infiltration | 1.00 | 1.67 | 3.67 | 58.49 ± 28.72 | 132.63 ± 137.34 | 377.31 ± 198.68 | Monocyte (total cell count and classification) (C57BL/6 mice [1]; [6]): 81.54 ×10^6; Neutrophil (total cell count and classification) (C57BL/6 mice [1]; [6]): 296.32 ×10^6; Inflammation score (C57BL/6 mice [3]; 300 μg/mouse (0.6 mg/mL, 0.5 mL) into air pouch, 1 hour before carrageenan): 1.6; Edema Score (C57BL/6 mice [3]; [7]): 1.8; Fibroplastic proliferation score (C57BL/6 mice [3]; [7]): 0.2; Sum (C57BL/6 mice [3]; 300 μg/mouse, printed sums equal inflammation + edema scores only): 3.4; anti-inflammatory effects (ELISA for TNF-α, IL-6, IL-1β) (TNF-α, IL-6, and IL-1β): very strong anti-inflammatory effects; improvement rate, (WCR MAP Peptide Group−WCR MAP Group)/WCR MAP Group×100% (C57BL/6 mice [4]; Day 6, versus MAP group): 52.96%; effect on wound healing compared with MAP (C57BL/6 mice [4]; acute wound model, Table 9): stronger effect on wound healing than MAP; wound contraction ratio (WCR), Day 2 (C57BL/6 mice [4]; [8]): 6.99 ± 2.02%; wound contraction ratio (WCR), Day 4 (C57BL/6 mice [4]; [8]): 18.65 ± 1.87%; wound contraction ratio (WCR), Day 6 (C57BL/6 mice [4]; [8]): 42.91 ± 0.57%; wound contraction ratio (WCR), Day 8 (C57BL/6 mice [4]; [8]): 48.73 ± 1.65%; wound contraction ratio (WCR), Day 0 (C57BL/6 mice [4]; ±SD, topical once daily, MAP 5 μg/wound, MAP Peptide 6.57 μg/wound, 8 mm full thickness wound): 0.00 ± 0%; erythema alleviation efficiency compared to MAP spray of same concentration [5]: much more rapid erythema alleviation efficiency; malaise [5]: inhibited malaise; subjects whose erythema completely disappeared in a few hours [5]: 50%; tested subjects with itch completely relieved within 1 minute [5]: 50%; time to alleviation of most of the observed erythema [5]: ≤ 1 min; time to relief of itching ([5]; morning and evening): ≤ 1 min

From patent US12129313B2, “Anti-inflammatory use of peptide” (ENLITISA (SHANGHAI) PHARMACEUTICAL CO., LTD, priority 2017, dated 2024)
